Experimental data taken from patent US9815796B2 (Merck Sharp & Dohme Corp., priority 2013, dated 2017).

Tests used:
[1] = target: Rhesus PDE2A3 (Macaca mulatta, UniProt B3VTJ2); experiment: PDE2 fluorescence polarization (IMAP FP) inhibition assay, rhesus enzyme; assay type: biochemical, rhesus macaque; settings: Rhesus PDE2, Lab B; read-out: Rhesus PDE2 Ki (nM) - Lab B
Procedure, shortened: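 IMAP FP (mP from parallel and perpendicular fluorescence against substrate-only control) was read ≥1 h after adding binding reagent. The preceding 60 min room-temperature reaction contained FAM-cAMP (50 nM) and cGMP (1 uM) in pH 7.2 Tris buffer with MgCl2 and DTT. Enzyme was supernatant of sonicated AD293 cells expressing rhesus PDE2A3; compounds were 3-fold titrated, DMSO 1% final.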

[2] = target: human PDE2A1 (Homo sapiens (Human), UniProt O00408); experiment: IMAP FP PDE selectivity panel, human PDE2A1; assay type: biochemical; settings: Human PDE2, Lab B; read-out: Human PDE2 Ki (nM) - Lab B
human PDE2A1, sequence (O00408 other isoform, or with tags, fused parts or gaps): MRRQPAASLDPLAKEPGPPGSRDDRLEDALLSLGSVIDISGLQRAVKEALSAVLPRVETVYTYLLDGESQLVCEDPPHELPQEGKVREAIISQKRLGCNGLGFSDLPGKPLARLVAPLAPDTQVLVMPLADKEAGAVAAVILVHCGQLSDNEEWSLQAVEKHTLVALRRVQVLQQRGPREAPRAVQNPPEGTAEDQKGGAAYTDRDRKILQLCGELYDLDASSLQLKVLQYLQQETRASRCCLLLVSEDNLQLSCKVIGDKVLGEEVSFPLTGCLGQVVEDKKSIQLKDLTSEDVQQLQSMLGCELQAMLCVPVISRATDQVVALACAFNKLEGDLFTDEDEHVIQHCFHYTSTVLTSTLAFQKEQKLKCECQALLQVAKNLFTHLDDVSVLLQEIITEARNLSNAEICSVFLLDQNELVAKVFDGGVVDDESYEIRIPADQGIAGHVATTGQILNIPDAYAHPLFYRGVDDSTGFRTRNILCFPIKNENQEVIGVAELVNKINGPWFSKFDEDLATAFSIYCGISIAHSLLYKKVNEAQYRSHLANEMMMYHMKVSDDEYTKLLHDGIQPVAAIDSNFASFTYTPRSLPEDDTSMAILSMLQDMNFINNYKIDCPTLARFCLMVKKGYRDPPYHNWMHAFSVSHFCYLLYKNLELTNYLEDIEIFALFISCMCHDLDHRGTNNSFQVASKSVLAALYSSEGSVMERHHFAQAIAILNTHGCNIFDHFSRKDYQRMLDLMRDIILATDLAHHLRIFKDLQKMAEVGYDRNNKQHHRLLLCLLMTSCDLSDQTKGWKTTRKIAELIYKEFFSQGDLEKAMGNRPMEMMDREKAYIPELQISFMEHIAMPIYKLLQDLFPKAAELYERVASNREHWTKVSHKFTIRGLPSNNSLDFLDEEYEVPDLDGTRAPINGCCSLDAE
Procedure, shortened: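 IMAP FP format: substrate 50 nM FAM-cAMP plus 1000 nM cGMP, enzyme (insect-cell GST-tagged human PDE2A1) at ~20% conversion, 60 min reaction at room temperature. Apparent inhibition constants calculated from parallel/perpendicular fluorescence with KM 10,000 nM.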

Rhesus PDE2A3, sequence (B3VTJ2 1-941): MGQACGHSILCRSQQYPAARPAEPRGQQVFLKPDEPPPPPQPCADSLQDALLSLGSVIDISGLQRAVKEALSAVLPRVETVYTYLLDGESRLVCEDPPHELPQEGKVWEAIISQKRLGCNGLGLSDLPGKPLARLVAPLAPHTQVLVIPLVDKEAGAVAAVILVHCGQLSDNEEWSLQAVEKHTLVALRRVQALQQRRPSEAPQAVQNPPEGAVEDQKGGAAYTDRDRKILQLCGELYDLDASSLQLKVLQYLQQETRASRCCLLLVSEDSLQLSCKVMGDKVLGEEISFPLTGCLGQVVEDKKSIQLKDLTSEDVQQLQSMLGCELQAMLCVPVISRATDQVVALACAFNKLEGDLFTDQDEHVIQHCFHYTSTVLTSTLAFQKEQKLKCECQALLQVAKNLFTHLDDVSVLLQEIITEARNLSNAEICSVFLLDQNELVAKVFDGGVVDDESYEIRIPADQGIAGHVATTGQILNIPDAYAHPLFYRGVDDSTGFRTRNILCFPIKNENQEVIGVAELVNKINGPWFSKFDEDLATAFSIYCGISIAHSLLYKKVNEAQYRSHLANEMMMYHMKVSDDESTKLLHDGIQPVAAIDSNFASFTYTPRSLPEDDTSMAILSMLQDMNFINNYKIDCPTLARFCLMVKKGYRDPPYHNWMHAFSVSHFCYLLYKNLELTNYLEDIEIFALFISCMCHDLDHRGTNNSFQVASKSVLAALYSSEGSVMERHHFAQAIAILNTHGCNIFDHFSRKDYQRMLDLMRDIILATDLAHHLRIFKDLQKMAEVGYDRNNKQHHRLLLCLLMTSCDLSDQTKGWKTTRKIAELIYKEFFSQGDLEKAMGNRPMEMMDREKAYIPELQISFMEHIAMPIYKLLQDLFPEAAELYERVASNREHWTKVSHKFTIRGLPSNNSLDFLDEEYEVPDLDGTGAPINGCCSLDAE

Row | SMILES | Ki [1] [nM] | Ki [2] [nM]
1 | CC[C@@H](NC(=O)c1cc(=O)[nH]c(C(C)(C)c2ccc(OC)cc2)n1)c1ccc(SC(F)(F)F)c(F)c1 [Example 496, N-[(1R)-1-{3-fluoro-4-[(trifluoromethyl)sulfanyl]phenyl}propyl]-2-[1-(4-methoxyphenyl)-1-methylethyl]-6-oxo-1,6-dihydropyrimidine-4-carboxamide] | 38 | 40
2 | COc1ccc(C(C)(C)c2nc(C(=O)N[C@@H](c3ccc(SC(F)(F)F)c(F)c3)C3CC3)cc(=O)[nH]2)cc1 [Example 497, N-[(R)-cyclopropyl{3-fluoro-4-[(trifluoromethyl)sulfanyl]phenyl}methyl]-2-[1-(4-methoxyphenyl)-1-methylethyl]-6-oxo-1,6-dihydropyrimidine-4-carboxamide] | 80 | 60
3 | COc1ccc(C(C)(C)c2nc(C(=O)N[C@@H](c3ccc(OC(F)(F)F)c(F)c3)C3CC3)cc(=O)[nH]2)cc1 [Example 498, N-{(R)-cyclopropyl[3-fluoro-4-(trifluoromethoxy)phenyl]methyl}-2-[1-(4-methoxyphenyl)-1-methylethyl]-6-oxo-1,6-dihydropyrimidine-4-carboxamide] | 65 | 49
4 | COc1ccc(C(C)(C)c2nc(C(=O)N[C@@H](c3ccc(SC(F)(F)F)cc3)C3CC3)cc(=O)[nH]2)cc1 [Example 500, N-[(R)-cyclopropyl{4-[(trifluoromethyl)sulfanyl]phenyl}methyl]-2-[1-(4-methoxyphenyl)-1-methylethyl]-6-oxo-1,6-dihydropyrimidine-4-carboxamide] | 79 | 74
5 | COc1ccc(C(C)(C)c2nc(C(=O)N[C@@H](c3ccc(OC(F)(F)F)cc3)C3CC3)cc(=O)[nH]2)cc1 [Example 501, N-{(R)-cyclopropyl[4-(trifluoromethoxy)phenyl]methyl}-2-[1-(4-methoxyphenyl)-1-methylethyl]-6-oxo-1,6-dihydropyrimidine-4-carboxamide] | 77 | 64
6 | COc1ccc(C(C)(C)c2nc(C(=O)N[C@@H](c3ccc(C(F)(F)F)cc3)C3CC3)cc(=O)[nH]2)cc1 [Example 502, N-{(R)-cyclopropyl[4-(trifluoromethyl)phenyl]methyl}-2-[1-(4-methoxyphenyl)-1-methylethyl]-6-oxo-1,6-dihydropyrimidine-4-carboxamide] | 115 | 75
7 | CC[C@@H](NC(=O)c1cc(=O)[nH]c(C(C)(C)c2ccc(OC)cc2)n1)c1ccc(OC(F)(F)F)c(F)c1 [Example 504, N-{(1R)-1-[3-fluoro-4-(trifluoromethoxy)phenyl]propyl}-2-[1-(4-methoxyphenyl)-1-methylethyl]-6-oxo-1,6-dihydropyrimidine-4-carboxamide] | 42 | 30
8 | CC[C@@H](NC(=O)c1cc(=O)[nH]c(C(C)(C)c2ccc(OC)cc2)n1)c1ccc(OC(F)(F)F)cc1 [Example 505, 2-[1-(4-methoxyphenyl)-1-methylethyl]-6-oxo-N-{(1R)-1-[4-(trifluoromethoxy)phenyl]propyl}-1,6-dihydropyrimidine-4-carboxamide] | 84 | 56
9 | COc1ccc(Cc2nc(C(=O)N[C@@H](c3ccc(S(F)(F)(F)(F)F)cc3)C3CC3)cc(=O)[nH]2)cc1F [Example 510, N-{(R)-cyclopropyl[4-(pentafluoro-λ^6-sulfanyl)phenyl]methyl}-2-(3-fluoro-4-methoxybenzyl)-6-oxo-1,6-dihydropyrimidine-4-carboxamide] | 3.3 | 2.8
10 | COc1ccc(Cc2nc(C(=O)N[C@@H](c3ccc(S(F)(F)(F)(F)F)cc3)C(C)C)cc(=O)[nH]2)cc1F [Example 513, 2-(3-fluoro-4-methoxybenzyl)-N-{(1R)-2-methyl-1-[4-(pentafluoro-λ^6-sulfanyl)phenyl]propyl}-6-oxo-1,6-dihydropyrimidine-4-carboxamide] | 2.1 | 1.9
11 | COc1ccc(Cc2nc(C(=O)N[C@@H](c3ccc(C(F)(F)F)c(F)c3)C(C)C)cc(=O)[nH]2)cc1F [Example 514, 2-(3-fluoro-4-methoxybenzyl)-N-{(1R)-1-[3-fluoro-4-(trifluoromethyl)phenyl]-2-methylpropyl}-6-oxo-1,6-dihydropyrimidine-4-carboxamide] | 2.2 | 1.8
12 | COc1ccc(Cc2nc(C(=O)N[C@@H](c3ccc(C(F)(F)F)cc3)C(C)C)cc(=O)[nH]2)cc1F [Example 516, 2-(3-fluoro-4-methoxybenzyl)-N-{(1R)-2-methyl-1-[4-(trifluoromethyl)phenyl]propyl}-6-oxo-1,6-dihydropyrimidine-4-carboxamide] | 1.6 | 1.5
13 | CC[C@@H](NC(=O)c1cc(=O)[nH]c(Cc2ccc(OC)c(F)c2)n1)c1ccc(SC(F)(F)F)cc1 [Example 518, 2-(3-fluoro-4-methoxybenzyl)-6-oxo-N-[(1R)-1-{4-[(trifluoromethyl)sulfanyl]phenyl}propyl]-1,6-dihydropyrimidine-4-carboxamide] | 1.8 | 1.7
14 | CC[C@@H](NC(=O)c1cc(=O)[nH]c(Cc2ccc(OC)c(F)c2)n1)c1ccc(SC(F)(F)F)c(F)c1 [Example 519, 2-(3-fluoro-4-methoxybenzyl)-N-[(1R)-1-{3-fluoro-4-[(trifluoromethyl)sulfanyl]phenyl}propyl]-6-oxo-1,6-dihydropyrimidine-4-carboxamide] | 1.7 | 2
15 | COc1ccc(Cc2nc(C(=O)N[C@@H](c3ccc(SC(F)(F)F)c(F)c3)C3CC3)cc(=O)[nH]2)cc1F [Example 520, N-[(R)-cyclopropyl{3-fluoro-4-[(trifluoromethyl)sulfanyl]phenyl}methyl]-2-(3-fluoro-4-methoxybenzyl)-6-oxo-1,6-dihydropyrimidine-4-carboxamide] | 3.8 | 3.6
16 | COc1ccc(Cc2nc(C(=O)N[C@@H](c3ccc(OC(F)(F)F)c(F)c3)C3CC3)cc(=O)[nH]2)cc1F [Example 521, N-{(R)-cyclopropyl[3-fluoro-4-(trifluoromethoxy)phenyl]methyl}-2-(3-fluoro-4-methoxybenzyl)-6-oxo-1,6-dihydropyrimidine-4-carboxamide] | 2.3 | 2.2
17 | COc1ccc(Cc2nc(C(=O)N[C@@H](c3ccc(C(F)(F)F)c(F)c3)C3CC3)cc(=O)[nH]2)cc1F [Example 522, N-{(R)-cyclopropyl[3-fluoro-4-(trifluoromethyl)phenyl]methyl}-2-(3-fluoro-4-methoxybenzyl)-6-oxo-1,6-dihydropyrimidine-4-carboxamide] | 2.9 | 2.6

Stronger by Ki [1], values ahead:

Row | Ki [1] [nM] | Ki [2] [nM] | SMILES
18 | 1.5 | 1.6 | COc1ccc(Cc2nc(C(=O)N[C@@H](c3ccc(SC(F)(F)F)c(F)c3)C(C)C)cc(=O)[nH]2)cc1F [Example 512, 2-(3-fluoro-4-methoxybenzyl)-N-[(1R)-1-{3-fluoro-4-[(trifluoromethyl)sulfanyl]phenyl}-2-methylpropyl]-6-oxo-1,6-dihydropyrimidine-4-carboxamide]
19 | 1.3 | 1.7 | COc1ccc(Cc2nc(C(=O)N[C@@H](c3ccc(OC(F)(F)F)cc3)C(C)C)cc(=O)[nH]2)cc1F [Example 517, 2-(3-fluoro-4-methoxybenzyl)-N-{(1R)-2-methyl-1-[4-(trifluoromethoxy)phenyl]propyl}-6-oxo-1,6-dihydropyrimidine-4-carboxamide]
20 | 1.2 | 1.4 | COc1ccc(Cc2nc(C(=O)N[C@@H](c3ccc(SC(F)(F)F)cc3)C(C)C)cc(=O)[nH]2)cc1F [Example 511, 2-(3-fluoro-4-methoxybenzyl)-N-[(1R)-2-methyl-1-{4-[(trifluoromethyl)sulfanyl]phenyl}propyl]-6-oxo-1,6-dihydropyrimidine-4-carboxamide]
21 | 1.1 | 1 | COc1ccc(Cc2nc(C(=O)N[C@@H](c3ccc(SC(F)(F)F)cc3)C(C)(C)C)cc(=O)[nH]2)cc1F [Example 507, N-[(1R)-2,2-dimethyl-1-{4-[(trifluoromethyl)sulfanyl]phenyl}propyl]-2-(3-fluoro-4-methoxybenzyl)-6-oxo-1,6-dihydropyrimidine-4-carboxamide]
22 | 1.1 | 1 | COc1ccc(Cc2nc(C(=O)N[C@@H](c3ccc(OC(F)(F)F)c(F)c3)C(C)C)cc(=O)[nH]2)cc1F [Example 515, 2-(3-fluoro-4-methoxybenzyl)-N-{(1R)-1-[3-fluoro-4-(trifluoromethoxy)phenyl]-2-methylpropyl}-6-oxo-1,6-dihydropyrimidine-4-carboxamide]
23 | 0.92 | 0.8 | COc1ccc(Cc2nc(C(=O)N[C@@H](c3ccc(OC(F)(F)F)c(F)c3)C(C)(C)C)cc(=O)[nH]2)cc1F [Example 506, 2-(3-fluoro-4-methoxybenzyl)-N-{(1R)-1-[3-fluoro-4-(trifluoromethoxy)phenyl]-2,2-dimethylpropyl}-6-oxo-1,6-dihydropyrimidine-4-carboxamide]
24 | 0.88 | 0.99 | COc1ccc(Cc2nc(C(=O)N[C@@H](c3ccc(OC(F)(F)F)cc3)C(C)(C)C)cc(=O)[nH]2)cc1F [Example 509, N-{(1R)-2,2-dimethyl-1-[4-(trifluoromethoxy)phenyl]propyl}-2-(3-fluoro-4-methoxybenzyl)-6-oxo-1,6-dihydropyrimidine-4-carboxamide]
25 | 0.77 | 0.8 | COc1ccc(Cc2nc(C(=O)N[C@@H](c3ccc(C(F)(F)F)c(F)c3)C(C)(C)C)cc(=O)[nH]2)cc1F [Example 508, 2-(3-fluoro-4-methoxybenzyl)-N-{(1R)-1-[3-fluoro-4-(trifluoromethyl)phenyl]-2,2-dimethylpropyl}-6-oxo-1,6-dihydropyrimidine-4-carboxamide]
